O=c1c2ccccc2sc2ccc(Cl)cc12
Details	solubility (mole fraction)
in 1,2-dichloroethane, 291.55 K	0.0108
in 1,2-dichloroethane, 293.05 K	0.0114
in 1,2-dichloroethane, 294.95 K	0.0121
in 1,2-dichloroethane, 297.05 K	0.0131
in 1,2-dichloroethane, 299.15 K	0.0139
in 1,2-dichloroethane, 301.25 K	0.015
in 1,2-dichloroethane, 306.25 K	0.0173
in 1,2-dichloroethane, 311.35 K	0.0195
in 1,2-dichloroethane, 316.35 K	0.022
in 1,2-dichloroethane, 321.45 K	0.0247
in 1,2-dichloroethane, 326.75 K	0.0275
in 1,2-dichloroethane, 331.55 K	0.0307
in 1,4-dioxane, 290.35 K	0.00155
in 1,4-dioxane, 295.45 K	0.00263
in 1,4-dioxane, 300.45 K	0.00398
in 1,4-dioxane, 305.55 K	0.00552
in 1,4-dioxane, 310.45 K	0.00703
in 1,4-dioxane, 315.55 K	0.00882
in 1,4-dioxane, 320.45 K	0.0105
in 1,4-dioxane, 326.35 K	0.0128
in 1,4-dioxane, 331.15 K	0.0145
in 2-butanone, 292.15 K	0.00488
in 2-butanone, 297.05 K	0.00587
in 2-butanone, 301.95 K	0.00695
in 2-butanone, 306.65 K	0.00834
in 2-butanone, 311.25 K	0.0101
in 2-butanone, 316.15 K	0.0119
in 2-butanone, 321.25 K	0.0145
in 2-butanone, 326.55 K	0.017
in 2-butanone, 331.55 K	0.0208
in 2-butanone, 335.95 K	0.024
in THF, 291.85 K	0.00658
in THF, 296.95 K	0.00767
in THF, 302.15 K	0.00869
in THF, 307.25 K	0.00967
in THF, 312.25 K	0.0106
in THF, 317.25 K	0.0113
in THF, 322.25 K	0.0118
in THF, 327.55 K	0.0124
in THF, 332.85 K	0.0127
in acetone, 289.15 K	0.00244
in acetone, 294.75 K	0.00278
in acetone, 299.15 K	0.00306
in acetone, 303.65 K	0.00335
in acetone, 309.25 K	0.00381
in acetone, 313.35 K	0.00425
in acetone, 319.15 K	0.00498
in acetone, 323.35 K	0.00579
in acetone, 329.25 K	0.00692
in acetonitrile, 289.15 K	0.000623
in acetonitrile, 294.35 K	0.000768
in acetonitrile, 299.45 K	0.00093
in acetonitrile, 305.15 K	0.00114
in acetonitrile, 309.85 K	0.00133
in acetonitrile, 315.15 K	0.0016
in acetonitrile, 319.75 K	0.0019
in acetonitrile, 324.35 K	0.00226
in acetonitrile, 329.15 K	0.00265
in ethanol, 287.55 K	0.000567
in ethanol, 293.15 K	0.000679
in ethanol, 298.15 K	0.000795
in ethanol, 303.15 K	0.000943
in ethanol, 308.35 K	0.00122
in ethanol, 313.35 K	0.0015
in ethanol, 318.15 K	0.0019
in ethanol, 322.15 K	0.00229
in ethanol, 327.65 K	0.00296
in ethyl acetate, 289.15 K	0.00367
in ethyl acetate, 293.15 K	0.00419
in ethyl acetate, 298.25 K	0.00502
in ethyl acetate, 303.45 K	0.00588
in ethyl acetate, 308.25 K	0.00683
in ethyl acetate, 313.35 K	0.00786
in ethyl acetate, 318.45 K	0.00935
in ethyl acetate, 324.65 K	0.0112
in ethyl acetate, 330.15 K	0.0129
in isopropanol, 290.25 K	0.000547
in isopropanol, 295.15 K	0.000647
in isopropanol, 300.55 K	0.000757
in isopropanol, 304.75 K	0.000906
in isopropanol, 310.25 K	0.0011
in isopropanol, 314.95 K	0.00137
in isopropanol, 320.35 K	0.00179
in isopropanol, 325.65 K	0.00225
in isopropanol, 331.15 K	0.00292
in methanol, 292.15 K	0.000192
in methanol, 297.05 K	0.000236
in methanol, 301.95 K	0.000279
in methanol, 306.65 K	0.00036
in methanol, 311.25 K	0.000414
in methanol, 316.15 K	0.000535
in methanol, 321.25 K	0.000665
in methanol, 326.55 K	0.000878
in methanol, 331.55 K	0.00112
in methanol, 335.95 K	0.00134
in n-propanol, 290.65 K	0.000647
in n-propanol, 295.25 K	0.000769
in n-propanol, 300.15 K	0.000896
in n-propanol, 305.55 K	0.00106
in n-propanol, 310.65 K	0.00129
in n-propanol, 315.55 K	0.00156
in n-propanol, 320.65 K	0.0019
in n-propanol, 325.55 K	0.0023
in n-propanol, 331.15 K	0.00277
in toluene, 289.65 K	0.00915
in toluene, 295.05 K	0.0112
in toluene, 300.15 K	0.0138
in toluene, 305.25 K	0.0164
in toluene, 310.25 K	0.0193
in toluene, 315.35 K	0.023
in toluene, 320.35 K	0.0276
in toluene, 325.25 K	0.0321
in toluene, 330.25 K	0.039

Source: BigSolDB 2.1
